Test results taken from ChEMBL document CHEMBL5512682, “Discovery of BMS-986308: A Renal Outer Medullary Potassium Channel Inhibitor for the Treatment of Heart Failure” (J Med Chem, 2024).

Legend:
[1] = target: T1, ATP-sensitive inward rectifier potassium channel 1 (Homo sapiens, UniProt P48048)
T1 sequence (P48048 whole entry): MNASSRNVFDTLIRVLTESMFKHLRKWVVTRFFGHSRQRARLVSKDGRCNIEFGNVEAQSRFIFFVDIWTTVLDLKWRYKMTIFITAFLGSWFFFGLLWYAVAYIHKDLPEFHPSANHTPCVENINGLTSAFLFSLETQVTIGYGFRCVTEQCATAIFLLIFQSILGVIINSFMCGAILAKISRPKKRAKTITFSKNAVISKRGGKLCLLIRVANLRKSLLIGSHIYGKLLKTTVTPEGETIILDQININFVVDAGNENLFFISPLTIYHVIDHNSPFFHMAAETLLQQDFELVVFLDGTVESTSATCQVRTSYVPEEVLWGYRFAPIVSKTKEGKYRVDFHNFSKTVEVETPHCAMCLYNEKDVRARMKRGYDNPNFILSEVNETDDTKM
Description: Inhibition of human ROMK expressed in T-REX-CHO cells incubated for 30 mins by thallium flux assay

hERG (KCNH2) [2] = target: T2, hERG (KCNH2) (Homo sapiens, UniProt Q12809); experiment: Inhibition of human ERG expressed in HEK293 cells at 1 uM incubated for 2 to 5 mins by Manual patch clamp assay relative to control; format: toxicity, cell-based; conditions: HEK293 cells expressing hERG, time 2-5 min
[3] = Metabolic stability in rat liver microsomes assessed as parent compound remaining at 10 uM measured after 10 mins in presence of NADPH and GSH by UPLC-MS/MS analysis; format: ADME, Microsome; conditions: read-out: Stability
[4] = Metabolic stability in human liver microsomes assessed as parent compound remaining at 10 uM measured after 10 mins in presence of NADPH and GSH by UPLC-MS/MS analysis; format: ADME, Microsome; conditions: read-out: Stability
[5] = Glutathione reactivity in human liver microsomes assessed as GSH-adduct formation at 10 uM incubated for 60 mins in presence of NADPH and GSH by HPLC-MS analysis; format: ADME, Microsome; conditions: 1 h
hERG (KCNH2) [6] = target: T2, hERG (KCNH2); experiment: Inhibition of human ERG expressed in HEK293 cells at 10 uM incubated for 2 to 5 mins by Manual patch clamp assay relative to control; format: toxicity, cell-based; conditions: HEK293 cells expressing hERG, time 2-5 min
[7] = target: T1, ATP-sensitive inward rectifier potassium channel 1; remark: listed apart in the source
Description: Inhibition of human ROMK expressed in T-REX-CHO cells incubated for 3 to 8 mins by whole cell manual patch clamp assay

hERG (KCNH2) [8] = target: T2, hERG (KCNH2); experiment: Inhibition of human ERG expressed in HEK293 cells at 3 uM incubated for 2 to 5 mins by Manual patch clamp assay relative to control; format: toxicity, cell-based; conditions: HEK293 cells expressing hERG, time 2-5 min
Homo sapiens [9] = species on record: Homo sapiens; experiment: Selectivity ratio of IC50 for inhibition of ERG expressed in HEK293 cells to IC50 for inhibition of human ROMK expressed in T-REX-CHO cells incubated for 30 mins by thallium flux assay; format: cell-based
[10] = target: Voltage-gated inwardly rectifying potassium channel KCNH2 (Homo sapiens, UniProt Q12809); experiment: Inhibition of human ERG expressed in HEK293 cells incubated for 2 to 5 mins by Manual patch clamp assay; format: toxicity, cell-based
Homo sapiens [11] = species on record: Homo sapiens; experiment: Selectivity ratio of IC50 for inhibition of ERG expressed in HEK293 cells to IC50 for inhibition of human ROMK expressed in T-REX-CHO cells incubated for 3 to 8 mins by whole cell manual patch clamp assay; format: cell-based

T2 sequence (Q12809 whole entry): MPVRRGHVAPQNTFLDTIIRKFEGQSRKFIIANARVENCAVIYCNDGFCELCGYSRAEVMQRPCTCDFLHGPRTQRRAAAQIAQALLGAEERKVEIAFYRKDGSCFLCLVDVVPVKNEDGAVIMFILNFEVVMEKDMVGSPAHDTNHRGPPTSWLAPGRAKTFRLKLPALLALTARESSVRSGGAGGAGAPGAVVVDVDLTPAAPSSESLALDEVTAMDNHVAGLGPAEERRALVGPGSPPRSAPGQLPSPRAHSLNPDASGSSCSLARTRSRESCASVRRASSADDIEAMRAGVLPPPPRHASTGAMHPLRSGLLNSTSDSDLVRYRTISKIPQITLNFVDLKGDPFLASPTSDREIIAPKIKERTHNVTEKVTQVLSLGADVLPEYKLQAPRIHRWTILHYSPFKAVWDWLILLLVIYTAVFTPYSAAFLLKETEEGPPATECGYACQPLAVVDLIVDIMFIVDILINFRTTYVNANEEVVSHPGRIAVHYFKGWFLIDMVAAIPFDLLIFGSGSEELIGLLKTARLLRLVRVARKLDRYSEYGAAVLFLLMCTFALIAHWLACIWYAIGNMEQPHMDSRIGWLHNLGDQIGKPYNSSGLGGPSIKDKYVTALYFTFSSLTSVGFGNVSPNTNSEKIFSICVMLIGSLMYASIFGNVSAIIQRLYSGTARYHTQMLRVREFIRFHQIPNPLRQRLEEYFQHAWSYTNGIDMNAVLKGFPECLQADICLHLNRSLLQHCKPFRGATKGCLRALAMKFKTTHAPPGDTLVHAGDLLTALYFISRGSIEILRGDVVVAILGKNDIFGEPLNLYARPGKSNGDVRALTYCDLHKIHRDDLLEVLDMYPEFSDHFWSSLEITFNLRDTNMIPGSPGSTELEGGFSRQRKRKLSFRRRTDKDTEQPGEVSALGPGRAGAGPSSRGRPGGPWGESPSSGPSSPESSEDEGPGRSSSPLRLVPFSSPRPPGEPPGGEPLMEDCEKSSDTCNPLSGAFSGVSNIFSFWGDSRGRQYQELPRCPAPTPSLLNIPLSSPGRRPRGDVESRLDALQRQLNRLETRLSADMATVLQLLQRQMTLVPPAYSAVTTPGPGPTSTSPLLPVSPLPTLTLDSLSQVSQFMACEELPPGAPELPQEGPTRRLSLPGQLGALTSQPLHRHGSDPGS
Chain of Voltage-gated inwardly rectifying potassium channel KCNH2 (Q12809 whole entry): as above

| SMILES | IC50 [1] [µM] | remaining at 10 min, 10 µM [3] [%] | remaining at 10 min, 10 µM [4] [%] | inhibition at 1 µM (hERG (KCNH2) [2]) [%] | other results |
| --- | --- | --- | --- | --- | --- |
| N#Cc1ccc(-c2ccc3c(c2)CCN(C[C@H](O)c2ccc4c(c2)COC4=O)C3)cc1F | 0.032 | – | – | 97 | – |
| Cc1cc(-n2ncc(CN3CCN[C@H](c4ccc5c(c4C)COC5=O)C3)n2)ncc1C#N | – | 100 | 100 | – | – |
| Cc1cc(-n2cc(CN3CC(c4ccc5c(c4C)COC5=O)NCC3C)cn2)ncc1C#N (stereo not given) | – | – | – | – | Activity [5]: Active |
| Cc1c([C@@H](O)CNCc2ccc(-c3ccc(C#N)c(F)c3)nc2)ccc2c1COC2=O | – | 51 | 75 | 66 | – |
| Cc1cc(-n2cc(CNC[C@H](O)c3ccc4c(c3C)COC4=O)c(C(F)F)n2)ncc1C#N | – | 1 | 18 | – | inhibition at 10 µM (hERG (KCNH2) [6]): 77% |
| COc1c(CNC[C@H](O)c2ccc3c(c2C)COC3=O)cnn1-c1cc(C)c(C#N)cn1 | – | – | – | 91 | – |
| Cc1cc(-n2ccc(CNC[C@H](O)c3ccc4c(c3C)COC4=O)n2)ncc1C#N | 0.43 | 1 | 12 | – | inhibition at 10 µM (hERG (KCNH2) [6]): 59% |
| N#Cc1ccc(-c2ccc3c(n2)CCN(C[C@H](O)c2ccc4c(c2)COC4=O)C3)cc1F | 0.061 | – | – | 80 | IC50 [7]: 0.037 µM |
| Cc1cc(-c2ccc(CNC[C@H](O)c3ccc4c(c3C)COC4=O)cn2)ncc1C#N | – | 46 | 90 | – | inhibition at 10 µM (hERG (KCNH2) [6]): 71% |
| Cc1cc(-n2cnc(CNC[C@H](O)c3ccc4c(c3C)COC4=O)c2)ncc1C#N | 0.046 | 67 | 97 | – | inhibition at 10 µM (hERG (KCNH2) [6]): 72% |
| Cc1c([C@@H](O)CN(C)Cc2ccc(-c3ccc(C#N)c(F)c3)nc2)ccc2c1COC2=O | – | 7 | 40 | 68 | – |
| Cc1cc(-c2ncc(CNC[C@H](O)c3ccc4c(c3C)COC4=O)s2)ncc1C#N | – | 33 | 85 | – | inhibition at 10 µM (hERG (KCNH2) [6]): 72% |
| Cc1c([C@@H](O)CN2CCc3nc(-c4ccc(C#N)c(F)c4)ncc3C2)ccc2c1COC2=O | 0.0088 | 96 | 62 | 71 | IC50 [7]: 0.0094 µM; Ratio IC50 (Homo sapiens [9]): 40; IC50 [10]: 0.41 µM; Ratio IC50 (Homo sapiens [11]): 40 |
| Cc1cc(-n2ncc(CNC[C@H](O)c3ccc4c(c3C)COC4=O)n2)ncc1C#N | 0.052 | 94 | 92 | – | IC50 [7]: 0.0081 µM; inhibition at 10 µM (hERG (KCNH2) [6]): 87% |
| Cc1cc(-n2cc(CNC[C@H](O)c3ccc4c(c3C)COC4=O)cn2)ncc1C#N | – | 72 | 86 | – | – |
| N#Cc1ccc(-c2ncc3c(n2)CCN(C[C@H](O)c2ccc4c(c2)COC4=O)C3)cc1F | 0.074 | 44 | 73 | 50 | – |
| N#Cc1ccc(-c2ccc3c(c2)CCN(CCc2ccc4c(c2)COC4=O)C3)cc1F | 0.059 | 8 | 72 | – | IC50 [7]: 0.013 µM; IC50 [10]: 0.01 µM |

More lines, main results first:

| IC50 [1] [µM] | remaining at 10 min, 10 µM [3] [%] | remaining at 10 min, 10 µM [4] [%] | SMILES | inhibition at 1 µM (hERG (KCNH2) [2]) [%] | other results |
| --- | --- | --- | --- | --- | --- |
| – | 56 | 44 | Cc1cc(-n2cc(CN3C[C@@H](c4ccc5c(c4C)COC5=O)OC(C)(C)C3)cn2)ncc1C#N | 13 | – |
| – | 93 | 76 | Cc1cc(-n2cc(CN3C[C@H](CO)N[C@H](c4ccc5c(c4C)COC5=O)C3)cn2)ncc1C#N | – | Activity [5]: Not Active |
| – | 29 | 59 | Cc1cc(-n2cc(CN3CCCC(c4ccc5c(c4C)COC5=O)C3)cn2)ncc1C#N (stereo not given) | 75 | – |
| – | 100 | 62 | Cc1cc(-n2ncc(CN3C[C@@H](c4ccc5c(c4C)COC5=O)NC(C)(C)C3)n2)ncc1C#N | – | – |
| – | 62 | 46 | Cc1cc(-n2cc(CN3CCNC(c4ccc5c(c4C)COC5=O)C3C)cn2)ncc1C#N (stereo not given) | 45 | Activity [5]: Active |
| – | 67 | 64 | Cc1cc(-n2cc(CN3CC(=O)N[C@H](c4ccc5c(c4C)COC5=O)C3)cn2)ncc1C#N | – | inhibition at 10 µM (hERG (KCNH2) [6]): 42% |
| 0.03 | 84 | 100 | Cc1cc(-n2cc(CN3CC(O)C(c4ccc5c(c4C)COC5=O)C3)cn2)ncc1C#N (stereo not given) | 58 | – |
| – | 50 | 54 | Cc1cc(-n2cc(CN3CC(O)CC(c4ccc5c(c4C)COC5=O)C3)cn2)ncc1C#N (stereo not given) | – | Activity [5]: Active; inhibition at 3 µM (hERG (KCNH2) [8]): 76% |
| – | 60 | 49 | Cc1cc(-n2cc(CN3CCO[C@H](c4ccc5c(c4C)COC5=O)C3)cn2)ncc1C#N | 26 | – |
| – | 75 | 64 | Cc1cc(-n2cc(CN3CC[C@@H](O)[C@H](c4ccc5c(c4C)COC5=O)C3)cn2)ncc1C#N | – | Activity [5]: Not Active |
| – | 90 | 96 | Cc1cc(-n2cc(CN3CCN[C@H](c4ccc5c(c4C)COC5=O)C3)cn2)ncc1C#N | – | – |
